Reference: patent EP0646315B1, “Novel compositions containing an auxin transport inhibitor and another herbicide” (Novartis AG, priority 1993, dated 1995)

Experiments:
velvetleaf [1] = assay: Field trial, post-emergent tank mix in field corn; type: in vivo, Abutilon theophrasti; conditions: post-emergent 35 days after seeding, weeds 41 to 89 cm, foliar broadcast tank mix, (z) 0.275 kg/ha, (a) 0.011 kg/ha, Aquagene 0.9 l/ha where named
Protocol: (§1) A field trial was conducted against velvetleaf and pigweed in field corn. Application was post-emergent 35 days after seeding with weeds at a height of 41 to 89 cm. Application was of tank mixed formulation by foliar applied broadcast treatment. Compound (a) above was tank mixed as is. Compound (z) above was tank mixed in the form of a 0.5 kg/l s.c. commercially available under the trademark […]®. Aquagene is a commercially available surfactant, (Universal Coop Incorporated, Minneapolis, MN).

pigweed [2] = assay: Field trial, post-emergent tank mix in field corn; type: in vivo, Amaranthus sp.; conditions: post-emergent 35 days after seeding, weeds 41 to 89 cm, foliar broadcast tank mix, (z) 0.275 kg/ha, (a) 0.011 kg/ha, Aquagene 0.9 l/ha where named
Protocol: as §1

morningglory = assay: Greenhouse test, post-emergence; type: in vivo, Ipomoea sp.; conditions: treatment 10 days post-emergence, evaluation 18 days after treatment, (e) 0.01 kg/ha, (z) 0.02 kg/ha, 3 repetitions
Protocol: (§2) A greenhouse test was conducted against velvetleaf, pigweed, morningglory and cocklebur. Treatment was at 10 days post-emergence and evaluation at 18 days after treatment. Compound (e) was formulated as technical a.i. in a mixture of equal parts acetone and water with 1/2% surfactant. Compound (z) was used in the commercially available form […]® herbicide (=480g/L a.i. equivalent) in water with 1/2% surfactant. The tank mixes were applied in a linear spray chamber with 3 repetitions per concentration.

cocklebur = assay: Greenhouse test, post-emergence; type: in vivo, Xanthium strumarium; conditions: treatment 10 days post-emergence, evaluation 18 days after treatment, (e) 0.01 kg/ha, (z) 0.02 kg/ha, 3 repetitions
Protocol: as §2

pigweed [3] = assay: Greenhouse test, post-emergence; type: in vivo, Amaranthus sp.; conditions: treatment 10 days post-emergence, evaluation 18 days after treatment, (e) 0.01 kg/ha, (z) 0.02 kg/ha, 3 repetitions
Protocol: as §2

velvetleaf [4] = assay: Greenhouse test, post-emergence; type: in vivo, Abutilon theophrasti; conditions: treatment 10 days post-emergence, evaluation 18 days after treatment, (e) 0.01 kg/ha, (z) 0.02 kg/ha, 3 repetitions
Protocol: as §2

| Molecule | % of control Velvetleaf (velvetleaf [1]) [%] | % of control Pigweed (pigweed [2]) [%] | activity at 275 g/ha (velvetleaf [1]; Abutilon theophrasti, 840 h, read-out: % of control Velvetleaf) [%] | % control Morningglory (morningglory) [%] | % control Cocklebur (cocklebur) [%] | % control Pigweed (pigweed [3]) [%] | % control Velvetleaf (velvetleaf [4]) [%] | activity at 275 g/ha (pigweed [2]; Amaranthus retroflexus, 840 h, read-out: % of control Pigweed) [%] |
| --- | --- | --- | --- | --- | --- | --- | --- | --- |
| 2-acetylnicotinic acid 4-(3,5-difluorophenyl)semicarbazone 2-(2-hydroxyethoxy)ethyl-ammonium salt [Compound (a)] | 13 | 18 |  |  |  |  |  |  |
| COc1c(Cl)ccc(Cl)c1C(=O)O [Compound (z), dicamba] |  |  | 18 | 35 | 75 | 35 | 35 | 30 |
